Assay results: patent US9981906B2, “Trans-clomiphene metabolites and uses thereof” (Repros Therapeutics Inc., priority 2011, dated 2018)

How the values were obtained:
[1] = system: cryopreserved hepatocytes from human; assay: Metabolite profile of Androxal in cryopreserved human hepatocytes; format: in vitro ADME; settings: LC/MS
Protocol: (§1) A study was conducted to determine the metabolic profile of Androxal® in cryopreserved hepatocytes from Sprague-Dawley rat, Beagle dog, cynomolgus monkey, and human. The liver is the main site of drug metabolism and the full complement of hepatic drug metabolizing enzymes (including liver enzymes of the CYP P450 family) are maintained within the intact cell. Isolated liver hepatocytes constitute a physiologically relevant experimental model for the evaluation of liver-related drug properties such as metabolism. Cyropreservation of the hepatocytes greatly enhances their availability for studies.
(§2) Primary hepatocytes isolated from several donors for each animal species and five human donors were pooled according to species and cryopreserved. The hepatocytes were thawed, subjected to Percoll density gradient centrifugation to remove debris and counted to determine yield. Viability was measured using Trypan blue exclusion. The hepatocytes were diluted with CYP assay buffer (Krebs-Hensleit Buffer) to prepare a 2× cell suspension of 2.0×10^6 viable cells/ml. Aliquots of the 2× hepatocyte suspension (0.5 ml containing 1.0×10^6 cells) were transferred to appropriate wells for a final 1× cell density of 1.0×10^6 cells/well. All incubations were conducted at 37±1° C., 95% air/5% CO2, and saturating humidity in 12-well uncoated culture plates. […] The cultures were incubated for 1 and 4 hours. The sample size was N=2 replicates.
(§3) Matrix control samples were included as a source of background matrix components to aid in metabolite identification. Equal volumes of 2× hepatocyte suspension and CYP assay buffer without Androxal® were combined and incubated for 4 hours.
(§4) Chemical degradation control samples were included to evaluate the possibility of chemical degradation of Androxal® in the absence of cells. Equal volumes of 2× Androxal® dosing solution (6 and 60 μM) and CYP buffer were combined and incubated for 1 and 4 hours.
(§5) The incubations were terminated as follows: Metabolic positive control incubations were terminated by adding an equal volume of methanol. All other incubations were terminated by placing the plates on ice. The contents of each well were mixed thoroughly and divided into five cryovials. An equal volume of organic solvent was added to one cryovial. The samples were either immediately analyzed or stored in cryovials at −70°±10 C until analysis.
(§6) All samples were analyzed by reverse-phase HPLC. A UV profile of the samples was obtained followed by liquid chromatography-mass spectrometry (LC/MS) analysis using a Micromass® Q-Tof-2 mass spectrometer capable of conducting accurate mass measurement. Preliminary metabolite identification was aided by the use of Metabolynx® software.
(§7) The relative amounts of Androxal and its metabolites after 1 and 4 hour incubations are reported below at Tables 1-4.

[2] = system: cryopreserved hepatocytes from cynomolgus monkey; assay: Metabolite profile of Androxal in cryopreserved cynomolgus monkey hepatocytes; format: in vitro ADME; settings: LC/MS
Protocol: as §1, §2, §3, §4, §5, §6, §7

[3] = system: cryopreserved hepatocytes from Beagle dog; assay: Metabolite profile of Androxal in cryopreserved Beagle dog hepatocytes; format: in vitro ADME; settings: LC/MS
Protocol: as §1, §2, §3
Chemical degradation control samples were included to evaluate the possibility of chemical degradation of Androxal® in the absence of cells. […]
as §5, §6, §7

[4] = system: cryopreserved hepatocytes from Sprague-Dawley rat; assay: Metabolite profile of Androxal in cryopreserved Sprague-Dawley rat hepatocytes; format: in vitro ADME; settings: LC/MS
Protocol: as §1, §2, §3, §4, §5, §6, §7

[5] = following a single dose; cited from earlier work
[6] = incubations containing 3 μM Androxal for 1 hour
[7] = incubations containing 3 μM Androxal for 4 hours
[8] = incubations containing 30 μM Androxal for 4 hours
[9] = incubations containing 30 mM Androxal for 1 hour

relative amount, Human [1, 6] | relative amount, Human [1, 7] | relative amount, Human [1, 8] | relative amount, Human [1, 9] | relative amount, Cyno. monkey [2, 6] | relative amount, Cyno. monkey [2, 7] | relative amount, Cyno. monkey [2, 8] | relative amount, Cyno. monkey [2, 9] | relative amount, Beagle dog [3, 6] | relative amount, Beagle dog [3, 7] | relative amount, Beagle dog [3, 8] | relative amount, Beagle dog [3, 9] | relative amount, SD Rat [4, 6] | relative amount, SD Rat [4, 7] | relative amount, SD Rat [4, 8] | relative amount, SD Rat [4, 9] | SMILES | residual blood levels [5] | relative amount, Beagle dog ([3]; incubations containing 30 μM Androxal for 4 hours, retention time 22.7) | relative amount, Beagle dog ([3]; incubations containing 30 μM Androxal for 4 hours, retention time 22.95)
625.8 | 285.4 | 4012.5 | 4297.8 | 279.1 | 84.2 | 2828.5 | 3166.4 | 148.9 | 103.2 | 4989.3 | 6227.3 | 240.0 | 182.5 | 3123.3 | 3166.8 | CCN(CC)CCOc1ccc(/C(=C(\Cl)c2ccccc2)c2ccccc2)cc1 [C26H28ClNO, trans-clomiphene] | – | – | –
240.3 | 247.0 | – | – | 239.4 | 43.4 | – | – | 218.8 | 103.4 | – | 1535.2 | 100.9 | 31.1 | – | 992.7 | CCN(CC)CCOc1ccc(/C(=C(/Cl)c2ccccc2)c2ccc(O)cc2)cc1 [C26H28NO2Cl, 4-hydroxy-trans-clomiphene] | – | – | –

Second part, the compound before the results:

SMILES | relative amount, Human [1, 6] | relative amount, Human [1, 7] | relative amount, Human [1, 8] | relative amount, Human [1, 9] | relative amount, Cyno. monkey [2, 6] | relative amount, Cyno. monkey [2, 7] | relative amount, Cyno. monkey [2, 8] | relative amount, Cyno. monkey [2, 9] | relative amount, Beagle dog [3, 6] | relative amount, Beagle dog [3, 7] | relative amount, Beagle dog [3, 8] | relative amount, Beagle dog [3, 9] | relative amount, SD Rat [4, 6] | relative amount, SD Rat [4, 7] | relative amount, SD Rat [4, 8] | relative amount, SD Rat [4, 9] | residual blood levels [5] | relative amount, Beagle dog ([3]; incubations containing 30 μM Androxal for 4 hours, retention time 22.7) | relative amount, Beagle dog ([3]; incubations containing 30 μM Androxal for 4 hours, retention time 22.95)
CCN(CC)CCOc1ccc(/C(=C(/Cl)c2ccccc2)c2ccccc2)cc1 (single isomer, unassigned) [cis isomer, cis-clomiphene] | – | – | – | – | – | – | – | – | – | – | – | – | – | – | – | – | in excess of one month | – | –
CCN(CC)CCOc1ccc(C(c2ccc(O)c(O)c2)C(Cl)c2ccccc2)cc1 (centres unmarked) [C26H30NO3Cl] | – | – | – | – | – | – | – | – | – | – | – | – | – | – | – | – | – | 65.9 | 43.7
CCNCCOc1ccc(/C(=C(/Cl)c2ccccc2)c2ccccc2)cc1 [C24H24NOCl, N-desethyl-trans-clomiphene] | 48.3 | 43.4 | 1262.4 | 699.8 | 22.3 | – | 2175.0 | 1029.8 | 25.9 | 18.6 | 723.5 | – | – | – | 673.8 | 336.6 | – | – | –
